We go through 16 compounds from patent publication US20140350081A1, “INSECT G-COUPLED RECEPTORS USEFUL AS TARGETS FOR INSECTICIDES AND COMPOUNDS AND REAGENTS IDENTIFIED USING THE SAME” (priority 2011, published 2014).

In one test the test system is Ae. aegypti L3 larvae. The test is described as follows: whole plant or invertebrate. Conditions: Aedes aegypti.
In the next test the target is AaDOP2 (Aedes aegypti, UniProt H6D5H2). The test is described as follows: HTRF cAMP accumulation concentration response assay (Cisbio Dynamic 2). The test is classed as cell-based.
Where [1] appears, read: 24 h, read-out: Toxicity to Aedes aegypti larvae (mortality) 24 hours, 400 μM, L3 larvae, three independent experiments.
The mark [2] stands for this setting: 48 h, read-out: Toxicity to Aedes aegypti larvae (mortality) 48 hours, 400 μM, L3 larvae, three independent experiments.
Where [3] appears, read: 72 h, read-out: Toxicity to Aedes aegypti larvae (mortality) 72 hours, 400 μM, L3 larvae, three independent experiments.
Setting [4] is: AaDOP2 expressing cells in the presence of dopamine, No Inhibition = <10% inhibition at 3 μM test compound.
The mark [5] stands for this setting: in vitro Concentration Response Curve assay, n = 2, relative to control antagonist Amitriptyline, read-out: Avg IC50.

The structures appear in SMILES notation. Counter-ions that a name gives are not always drawn. Like-named read-outs stand apart in the source and are kept apart here.

Sequence of AaDOP2 (H6D5H2 entry or part of it): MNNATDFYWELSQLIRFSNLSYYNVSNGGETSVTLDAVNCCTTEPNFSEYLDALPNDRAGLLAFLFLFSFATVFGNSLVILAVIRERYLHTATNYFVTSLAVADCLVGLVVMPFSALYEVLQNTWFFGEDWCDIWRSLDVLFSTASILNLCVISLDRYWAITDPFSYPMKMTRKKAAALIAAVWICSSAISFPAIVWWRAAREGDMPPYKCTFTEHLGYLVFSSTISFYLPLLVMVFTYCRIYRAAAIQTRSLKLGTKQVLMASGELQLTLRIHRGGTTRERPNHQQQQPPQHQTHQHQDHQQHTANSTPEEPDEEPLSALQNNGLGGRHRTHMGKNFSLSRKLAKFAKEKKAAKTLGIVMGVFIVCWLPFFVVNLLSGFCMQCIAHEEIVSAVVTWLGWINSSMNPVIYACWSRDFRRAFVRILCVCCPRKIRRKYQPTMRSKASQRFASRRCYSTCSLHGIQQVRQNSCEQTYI

The mortality is the percentage killed. For orientation: IC50 means the concentration that gives 50% inhibition. With `CNCCCN1c2ccccc2CCc2ccccc21` [Desipramine], the mortality at 400 µM in the test on Ae. aegypti L3 larvae (setting [1]) turned out to be 30%; with Ae. aegypti L3 larvae (setting [2]) it was 40%; with Ae. aegypti L3 larvae (setting [3]), 43%. Also, the concentration for half-maximal inhibition (IC50) at AaDOP2 (AaDOP2 expressing cells in the presence of dopamine, No Inhibition = <10% inhibition at 3 μM test compound, read-out: IC50 ± S.E.M. (nM), HTRF cAMP assay) turned out to be 3300 nM.

As to `COc1ccc(C(CN(C)C)C2(O)CCCCC2)cc1` (stereo not shown) [Venlafaxine], the mortality at 400 µM came to 3% with Ae. aegypti L3 larvae (setting [1]), 7% in the test with Ae. aegypti L3 larvae (setting [2]) and 13% with Ae. aegypti L3 larvae (setting [3]). Further, the “IC50 ± S.E.M. (nM), HTRF cAMP assay” value at AaDOP2 (setting [4]) is “No Inhibition^a”.

Take `COCCCC/C(=N\OCCN)c1ccc(C(F)(F)F)cc1` [Fluvoxamine]: the figures for the mortality at 400 µM with Ae. aegypti L3 larvae (setting [1]), in the test with Ae. aegypti L3 larvae (setting [2]) and with Ae. aegypti L3 larvae (setting [3]) were 27%, 33% and 43%, respectively. Further, the “IC50 ± S.E.M. (nM), HTRF cAMP assay” value at AaDOP2 (setting [4]) is listed as “No Inhibition^a”.

Take `CNCC[C@@H](Oc1ccccc1C)c1ccccc1` [Atomoxetine]: the mortality at 400 µM was 20% with Ae. aegypti L3 larvae (setting [1]), 30% in the test with Ae. aegypti L3 larvae (setting [2]) and 30% in the test on Ae. aegypti L3 larvae (setting [3]). Besides, at AaDOP2 (setting [4]), the “IC50 ± S.E.M. (nM), HTRF cAMP assay” value is given as “No Inhibition^a”.

Turning to `CCOC(=O)c1c(C)n(-c2ccccc2)c2cc(Br)c(OC)cc12` [ST002262, ethyl 6-bromo-5-methoxy-2-methyl-1-phenylindole-3-carboxylate], the 50% inhibitory concentration (IC50) on AaDOP2 (setting [5]) was determined as 4860 nM.

`CCCC(=O)Nc1ccc(Nc2nc(C)cc(Nc3ccccc3)n2)cc1` [Compound G869-0097, N-(4-((4-methyl-6-(phenylamino)pyrimidin-2-yl)amino)phenyl)butyramide]: the IC50 at AaDOP2 (setting [5]) turned out to be 6050 nM.

In the case of `Cc1cc(N2CCCC2)nc(Nc2ccc(NC(=O)Cc3ccccc3)cc2)n1` [Compound G869-0499, N-(4-((4-methyl-6-(pyrrolidin-1-yl)pyrimidin-2-yl)amino)phenyl)-2-phenylacetamide], on AaDOP2 (setting [5]), the IC50 was 9230 nM.

For `COc1ccc(C(=O)Nc2nc(-c3ccc4c(c3)OCCO4)cs2)cc1OC` [ST075014, N-(4-(2H,3H-benzo[3,4-e]1,4-dioxin-6-yl)(1,3-thiazol-2-yl))(3,4-dimethoxyphenyl)carboxamide], at AaDOP2 (setting [5]), the IC50 was 8310 nM.

As to `CC(COc1ccccc1Cc1ccccc1)N1CCCCC1` (racemic) [Benproperine phosphate, (RS)-1-[2-(2-benzylphenoxy)-1-methylethyl]piperidine], the half-maximal inhibitory concentration (IC50) at AaDOP2 (setting [5]) was 4510 nM.

Regarding `Cc1ccc(/N=C/N(C)/C=N/c2ccc(C)cc2C)c(C)c1` [Amitraz], the “IC50 ± S.E.M. (nM), HTRF cAMP assay” value at AaDOP2 (setting [4]) is “No Inhibition^a”.

Take `OCCN1CCN(c2nc(Nc3ccccc3)c3cnn(-c4ccccc4)c3n2)CC1` [Compound G932-0232, 2-(4-(1-phenyl-4-(phenylamino)-1H-pyrazolo[3,4-d]pyrimidin-6-yl)piperazin-1-yl)ethanol]: on AaDOP2 (setting [5]), the IC50 is 1170 nM.

Regarding `COc1ccc(Nc2cc(C)nc(Nc3ccc(NC(=O)c4c(F)cccc4Cl)cc3)n2)cc1` [Compound G869-0304, 2-chloro-6-fluoro-N-(4-((4-((4-methoxyphenyl)amino)-6-methylpyrimidin-2-yl)amino)phenyl)benzamide], the concentration for half-maximal inhibition (IC50) on AaDOP2 (setting [5]) was 7170 nM.

As for `CN1CCN(c2nc(Nc3cccc(F)c3)c3cnn(-c4ccccc4)c3n2)CC1` [Compound G932-0671, N-(3-fluorophenyl)-6-(4-methylpiperazin-1-yl)-1-phenyl-1H-pyrazolo[3,4-d]pyrimidin-4-amine], the half-maximal inhibitory concentration (IC50) at AaDOP2 (setting [5]) is 585 nM.

Regarding `O=C1[C@H]2CCCC[C@H]2C(=O)N1CCCCN1CCN(c2nsc3ccccc23)CC1` [Peropirone Hcl, (3aR,7aS)-2-{4-[4-(1,2-benzisothiazol-3-yl)piperazin-1-yl]butyl}hexahydro-1H-isoindole-1,3(2H)-dione], the IC50 on AaDOP2 (setting [5]) was 186 nM.

On to `CCC(CC)c1nc(Nc2ccc(C)c(Cl)c2)c2ccccc2n1` [ST029892, (3-chloro-4-methylphenyl)[2-(ethylpropyl)quinazolin-4-yl]amine], for which the IC50 on AaDOP2 (setting [5]) amounted to 4510 nM.

`CCc1nn(CCCN2CCN(c3cccc(Cl)c3)CC2)c(=O)n1CCOc1ccccc1` [Nefazodone HCl, 2-[3-[4-(3-chlorophenyl)-1-piperazinyl]propyl]-5-ethyl-2,4-dihydro-4-(2-phenoxyethyl)-3H-1,2,4-triazol-3-one hydrochloride] showed a half-maximal inhibitory concentration (IC50) at AaDOP2 of 4880 nM.
